{
  "source": "patent US20150224164A1",
  "about": "“TREATMENT OF AUTISM SPECTRUM DISORDERS USING GLYCYL-L-2-METHYLPROLYL-L-GLUMATIC ACID” (Neuren Pharmaceuticals Limited, priority 2013, published 2015)",
  "key": {"[1]": {"test_system": "PCNA positive cells in the subventricular zone (SVZ)", "assay": "Neuroblast proliferation, PCNA positive cells in subventricular zone", "type": "in vivo, rat", "details": "3 days", "procedure": "To carry out these studies, tissues were fixed and embedded in paraffin and sections obtained using standard methods. Coronal sections (6 μm) containing the level of the hippocampus were cut and mounted on chrome-alum-coated slides for staining. The sections were deparaffinized in xylene, […] in a series of ethanol and incubated in 0.1 M phosphate buffered saline (PBS). Primary antibodies against glial fibrillary acidic protein (GFAP) and proliferating cell nuclear antigen (PCNA) were used to mark reactive glial cells and cells undergoing apoptosis and proliferation, respectively. For antigen unmasking (caspase-3 and PCNA staining), sections were heated in 10 mM sodium citrate buffer (pH 6.0) for 1 min at high power. All sections were pretreated with 1% H2O2 in 50% methanol for 30 min to quench the endogenous peroxidase activity. Then either 1.5% normal horse serum or 2.5% normal sheep serum in PBS was applied for 1 h at room temperature to block nonspecific background staining. […] The number of PCNA positive cells was counted in the subventricular zone and the GFAP positive cells was scored in the cerebral cortex. […] The number of PCNA positive cells was counted in the SVZ and the number of cells was then averaged as cells/mm depending on the length of ventricle wall used for counting (FIG. 19A). […]"}, "GFAP-positive astrocytes": {"test_system": "GFAP-positive astrocytes", "assay": "Astrocytosis, GFAP staining in aged brains", "type": "in vivo, rat", "details": "18-month old rats; i.p.; 3 d; particularly 0.12 and 12 mg/kg; p<0.05", "procedure": "To carry out these studies, tissues were fixed and embedded in paraffin and sections obtained using standard methods. Coronal sections (6 μm) containing the level of the hippocampus were cut and mounted on chrome-alum-coated slides for staining. The sections were deparaffinized in xylene, […] in a series of ethanol and incubated in 0.1 M phosphate buffered saline (PBS). Primary antibodies against glial fibrillary acidic protein (GFAP) and proliferating cell nuclear antigen (PCNA) were used to mark reactive glial cells and cells undergoing apoptosis and proliferation, respectively. For antigen unmasking (caspase-3 and PCNA staining), sections were heated in 10 mM sodium citrate buffer (pH 6.0) for 1 min at high power. All sections were pretreated with 1% H2O2 in 50% methanol for 30 min to quench the endogenous peroxidase activity. […] The number of PCNA positive cells was counted in the subventricular zone and the GFAP positive cells was scored in the cerebral cortex. We also evaluated effects of G-2-MePE on astrocytosis in the CA4 sub-region of the hippocampus in aged rats. […] GFAP-positive cells were counted using a computerised program (Discovery 1). G-2-MePE was administered intra-peritoneally and the numbers of GFAP-positive cells were assessed 3d after the injection. […]"}},
  "note": "Where a SMILES comes first, the peptide text is derived from it.",
  "data": [
    {"smiles": "C[C@@]1(C(=O)N[C@@H](CCC(=O)O)C(=O)O)CCCN1C(=O)CN", "note": "[Example G-2-MePE, Glycyl-L-2-methylprolyl-L-glutamic acid] (HELM PEPTIDE1{G.[C[C@@]1(C(=O)[*:2])CCCN1[*:1]].E}$$$$V2.0)", "values": [
      {"measurement": "number of PCNA positive cells in SVZ", "setting": "[1]; 9 month old rats, 1.2 mg/kg i.p., p<0.005", "result": "significant increase"},
      {"measurement": "number of PCNA positive cells in SVZ", "setting": "[1]; 18 month old rats, single i.p. 12 mg/kg, vs vehicle p<0.05", "result": "significant increase"},
      {"measurement": "number of reactive astrocytes (GFAP) in CA4 region of hippocampus", "setting": "GFAP-positive astrocytes", "result": "reduced number of reactive astrocytes"}
    ]}
  ]
}
